# According to patent EP3807270B1, “NOVEL HETEROARYL HETEROCYCLYL COMPOUNDS FOR THE TREATMENT OF AUTOIMMUNE DISEASE” (F. Hoffmann-La Roche AG, priority 2018, dated 2019):
# pIC50: −log10 of the molar value.
# Molecular target: T1, human TLR8 (Homo sapiens, UniProt Q9NR97)
# T1 construct: host or cells: HEK293 (HEK-Blue)
# T1 sequence (Q9NR97 27-1041): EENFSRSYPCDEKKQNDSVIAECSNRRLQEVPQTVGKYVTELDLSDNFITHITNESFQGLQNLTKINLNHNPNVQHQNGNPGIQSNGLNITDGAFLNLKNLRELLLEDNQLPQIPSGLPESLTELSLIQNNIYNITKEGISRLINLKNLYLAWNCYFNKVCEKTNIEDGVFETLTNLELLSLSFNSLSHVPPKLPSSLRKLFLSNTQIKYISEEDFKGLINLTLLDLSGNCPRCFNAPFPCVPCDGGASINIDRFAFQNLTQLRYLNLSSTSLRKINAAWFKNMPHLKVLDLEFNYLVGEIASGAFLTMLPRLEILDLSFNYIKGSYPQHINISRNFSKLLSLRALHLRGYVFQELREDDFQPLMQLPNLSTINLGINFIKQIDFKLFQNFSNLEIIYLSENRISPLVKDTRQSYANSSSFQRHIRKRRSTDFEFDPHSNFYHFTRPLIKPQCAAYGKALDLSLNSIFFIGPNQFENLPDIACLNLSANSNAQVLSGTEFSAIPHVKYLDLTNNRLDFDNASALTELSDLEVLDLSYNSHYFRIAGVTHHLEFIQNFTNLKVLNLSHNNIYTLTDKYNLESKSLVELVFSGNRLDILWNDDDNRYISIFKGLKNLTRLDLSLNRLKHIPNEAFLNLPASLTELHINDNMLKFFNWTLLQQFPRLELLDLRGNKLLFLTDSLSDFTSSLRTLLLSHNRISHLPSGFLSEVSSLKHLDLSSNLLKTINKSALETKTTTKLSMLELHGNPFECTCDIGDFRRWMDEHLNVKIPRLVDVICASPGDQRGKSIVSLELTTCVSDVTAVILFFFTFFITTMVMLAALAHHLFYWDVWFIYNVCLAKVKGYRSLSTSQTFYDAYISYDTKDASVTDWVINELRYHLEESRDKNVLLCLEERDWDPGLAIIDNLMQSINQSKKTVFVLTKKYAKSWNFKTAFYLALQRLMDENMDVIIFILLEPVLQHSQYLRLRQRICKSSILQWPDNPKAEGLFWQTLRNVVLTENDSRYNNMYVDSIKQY
# Experiment: HEK293-Blue-hTLR-8 cells assay (SEAP reporter, R848 stimulation)
# Format: cell-based
# Details: HEK293-Blue-hTLR8 cells, R848, 20 hrs; read-out: HEK/hTLR8 IC50
# In short: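 HEK293-Blue-hTLR8 cells (NF-κB/AP-1-driven SEAP) in DMEM/10% FBS were treated with serially diluted compound (1% DMSO final) plus R848 for 20 hrs at 37 °C. Supernatant SEAP was measured with QUANTI-Blue after 2 hrs at 37 °C, absorbance 620-655 nm; antagonism seen as reduced reporter.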
row,SMILES,pIC50
1,"C[C@@H]1CN(c2ccc(C#N)c3nccnc23)C[C@H](CN2CCN(c3cc4c(cn3)[C@@H](C)NCC4)CC2)O1 (single isomer, unassigned) [Example 86]",8.70
2,"C[C@@H]1CN(c2ccc(C#N)c3nccnc23)C[C@H](CN2CCN(c3cc4c(cn3)CCN[C@@H]4C)CC2)O1 (single isomer, unassigned) [Example 87]",8.70
3,"C[C@@H]1CN(c2ccc(C#N)c3nccnc23)C[C@H](CN2CCN(c3cc4c(cn3)CCN[C@H]4C)CC2)O1 (single isomer, unassigned) [Example 88]",8.70
4,"[2H]c1nc2c(C#N)ccc(N3C[C@H](CN4CCN(c5cc6c(cn5)[C@H](C)NCC6)CC4)O[C@H](C)C3)c2nc1[2H] (single isomer, unassigned) [Example 94]",8.70
5,"[2H]c1nc2c(C#N)ccc(N3C[C@H](CN4CCN(c5cc6c(cn5)[C@@H](C)NCC6)CC4)O[C@H](C)C3)c2nc1[2H] (single isomer, unassigned) [Example 95]",8.52
6,"[2H]c1nc2c(C#N)ccc(N3C[C@H](CN4CCN(c5ccc6c(n5)CN[C@H]6C)CC4)O[C@H](C)C3)c2nc1[2H] (single isomer, unassigned) [Example 96]",8.52
7,"[2H]c1nc2c(C#N)ccc(N3C[C@H](CN4CCN(c5ccc6c(n5)CN[C@@H]6C)CC4)O[C@H](C)C3)c2nc1[2H] (single isomer, unassigned) [Example 97]",8.40
8,"[2H]c1ccc2c(N3C[C@H](CN4CCN(c5ccc6c(n5)CN[C@@H]6C)CC4)O[C@H](C)C3)ccc(C#N)c2n1 (single isomer, unassigned) [Example 98]",8.30
9,"[2H]c1ccc2c(N3C[C@H](CN4CCN(c5ccc6c(n5)CN[C@H]6C)CC4)O[C@H](C)C3)ccc(C#N)c2n1 (single isomer, unassigned) [Example 99]",8.30
10,"C[C@@H]1CN(c2ccc(C#N)c3ncccc23)C[C@H](CN2CCN(c3ccc4c(c3)CNCC4)CC2)O1 [Example 9, 5-[(2R,6S)-2-methyl-6-[[4-(1,2,3,4-tetrahydroisoquinolin-7-yl)piperazin-1-yl]methyl]morpholin-4-yl]quinoline-8-carbonitrile]",7.82
11,"C[C@@H]1CN(c2ccc(C#N)c3ncccc23)C[C@H](CN2CCN(c3cnc4c(c3)CNC4)CC2)O1 [Example 10, 5-[(2S,6R)-2-[[4-(6,7-dihydro-5H-pyrrolo[3,4-b]pyridin-3-yl)piperazin-1-yl]methyl]-6-methyl-morpholin-4-yl] quinoline-8-carbonitrile]",7.64
